Test results as given in ChEMBL document CHEMBL1156618, “Design, synthesis and in vitro antitumor activity of 4-aminoquinoline and 4-aminoquinazoline derivatives targeting EGFR tyrosine kinase” (Bioorg Med Chem, 2008).
Activity calls are given as the source filed them. The rule behind the calls is not given here.

Each compound was assayed on MCF7 (assay: Cytotoxicity against human MCF7 cells after 48 hrs by SRB assay).
Format: functional, cell-based

**Q.** With `CCOc1ccc2nc(C)cc(Nc3ccc(S(=O)(=O)Nc4nccs4)cc3)c2c1` as the compound, how does the Activity read?
**A.** inactive

**Q.** How did the IC50 turn out when `CCOc1ccc2nc(C)cc(Nc3ccc(Cl)cc3Cl)c2c1` was run?
**A.** 4.38 µM

**Q.** Which IC50 does the source give for `CCOc1ccc2nc(C)cc(Nc3ccc(S(=O)(=O)Nc4ncccn4)cc3)c2c1` here?
**A.** 3.96 µM

**Q.** With `CCOc1ccc2nc(C)cc(Nc3cc(OC)c(OC)cc3C(=O)OC)c2c1` as the compound, how does the IC50 read?
**A.** 1.67 µM

**Q.** With `CCOc1ccc2nc(C)cc(Nc3ccc(S(=O)(=O)NC(=N)N)cc3)c2c1` as the compound, how does the IC50 read?
**A.** 19.2 µM

**Q.** Which IC50 does the source give for `COc1cc2nc(Cl)nc(N3CCN(S(=O)(=O)c4ccc(C)cc4)CC3)c2cc1OC` here?
**A.** 1.08 µM

**Q.** Which IC50 does the source give for `COc1cc2nc(Cl)nc(Nc3ccc(S(=O)(=O)Nc4nccs4)cc3)c2cc1OC` here?
**A.** 0.13 µM

**Q.** Which IC50 does the source give for `CCOc1ccc2nc(C)cc(Nc3ccc(S(=O)(=O)Nc4cc(C)on4)cc3)c2c1` here?
**A.** 13.8 µM

**Q.** For `COc1cc2nc(Cl)nc(Nc3ccc(S(=O)(=O)Nc4cc(C)on4)cc3)c2cc1OC`, which IC50 is on record?
**A.** 1.98 µM

**Q.** Which IC50 does the source give for `CCOc1ccc2nc(C)cc(N3CCN(C(=O)c4ccco4)CC3)c2c1` here?
**A.** 4.31 µM

**Q.** `CCOc1ccc2nc(C)cc(Nc3cccc(O)c3)c2c1` was tested. Which IC50 did it give?
**A.** 2.84 µM
